Laboratory results published in patent US20080287478A1 (priority 2003, published 2008).
Counter-ions that a name gives are not always drawn. Like-named read-outs stand apart in the source and are kept apart here.

Columns and labels:
Male SD/TAC rats = assay: animal or person; assay type: in vivo, rat; conditions: for response vs control in vivo at 3 µmol/kg / minimal effective dose / ED (max): Rattus norvegicus; for minimal effective dose: read-out: Lovest Dose at which increased diuresis is achieved nMol/kg. I.e. >1.5 SC; for ED (max): read-out: SC Dose at which max diuresis is achieved nMol/kg
male NMRI mice = conditions: mouse, in vivo, iv; for dose at which the mice died after injection / time to death after injection: male, NMRI
mice = conditions: mouse, in vivo, iv
in vivo = conditions: male, Sprague-Dawley, rat
[1] = rat, in vivo

## CC(C)[C@H]1CC[C@@H](N2CCC3(CC2)C(=O)N(CCCNCCNCCNCCCNCCN)CN3c2ccccc2)CC1 [Compound 33, cis-8-(4-Isopropyl-cyclohexyl)-3-(4,7,10,14,17-pentaazaheptadecyl)-1-phenyl-1,3,8-triaza-spiro[4.5]decan-4-one]
Male SD/TAC rats; po, read-out: PO max effect.
  response vs control in vivo at 3 µmol/kg: 160%
Male SD/TAC rats; sc
  minimal effective dose: 0.0001 µmol/kg
  ED (max): 1000 nmol/kg
Male SD/TAC rats; sc, read-out: SC max effect.
  response vs control in vivo at 3 µmol/kg: 330%
Male SD/TAC rats; rat, in vivo, po
  Lovest Dose at which increased diuresis is achieved nMol/kg. I.e. >1.5 PO: 1000 nmol/kg
  PO Dose at which max diuresis is achieved: 1000 nmol/kg

## CC(C)[C@H]1CC[C@@H](N2CCC3(CC2)C(=O)N(CCCCCCNCCNCCCNCCNCCN)CN3c2ccccc2)CC1 [Compound 34, cis-8-(4-Isopropyl-cyclohexyl)-3-(7,10,14,17,20-pentaazaeicosanyl)-1-phenyl-1,3,8-triaza-spiro[4.5]decan-4-one]
Male SD/TAC rats; po, read-out: PO max effect.
  response vs control in vivo at 3 µmol/kg: 200%
Male SD/TAC rats; sc
  minimal effective dose: 0.01 µmol/kg
  ED (max): 100 nmol/kg
Male SD/TAC rats; sc, read-out: SC max effect.
  response vs control in vivo at 3 µmol/kg: 490%
Male SD/TAC rats; rat, in vivo
  Lovest Dose at which increased diuresis is achieved nMol/kg. I.e. >1.5 IV: 0.0001 nmol/kg
Male SD/TAC rats; rat, in vivo, po
  Lovest Dose at which increased diuresis is achieved nMol/kg. I.e. >1.5 PO: 0.1 nmol/kg
  PO Dose at which max diuresis is achieved nMol/kg: 0.1; 10 nMol/kg
Male NMRI mice
  dose at which the mice died after injection: 2000 nmol/kg
  time to death after injection: approximately 2 minutes
  CNS grid shock* (Minimal effective dose nmol/kg): 300 nmol/kg
  gridshock response versus vehicle: No statistical significant difference
mice
  CNS motility* (Minimal effective dose nmol/kg): 100 nmol/kg
  dose with statistical significant decrease in locomotor activity during the first 15 minutes: 1000 nmol/kg
  locomotor activity / activity count during the first 30 minutes versus vehicle: No statistical significant difference

## CC(C)[C@H]1CC[C@@H](N2CCC3(CC2)C(=O)N(CCCN2CCCNCCNCCCNCC2)CN3c2ccccc2)CC1 [Compound 36, cis-8-(4-Isopropyl-cyclohexyl)-1-phenyl-3-[3-(1,4,8,11-tetraaza-cyclotetradec-1-yl)-propyl]-1,3,8-triaza-spiro[4.5]decan-4-one]
Male SD/TAC rats; po, read-out: PO max effect.
  response vs control in vivo at 3 µmol/kg: 240%
Male SD/TAC rats; rat, in vivo
  Lovest Dose at which increased diuresis is achieved nMol/kg. I.e. >1.5 IV: 10 nmol/kg
Male SD/TAC rats; rat, in vivo, po
  Lovest Dose at which increased diuresis is achieved nMol/kg. I.e. >1.5 PO: 1000 nmol/kg
  PO Dose at which max diuresis is achieved: 1000 nmol/kg
In vivo
  half-life: 2 h
Male NMRI mice
  dose at which the mice died after injection: 2000 nmol/kg
  time to death after injection: approximately 1
  CNS grid shock* (Minimal effective dose nmol/kg): 1000 nmol/kg
mice
  CNS motility* (Minimal effective dose nmol/kg): 100 nmol/kg

## O=C(O)C(F)(F)F [TFA, Trifluoroacetic acid]
Male NMRI mice
  gridshock response versus vehicle: No statistical significant difference
mice
  locomotor activity / activity count during the first 30 minutes versus vehicle: No statistical significant difference

## CC(C)[C@H]1CC[C@@H](N2CCC3(CC2)C(=O)N(CCCCCCCCCN2CN(c4ccccc4)C4(CCN([C@H]5CC[C@@H](C(C)C)CC5)CC4)C2=O)CN3c2ccccc2)CC1 [Compound 25, 1,9-bis-(cis-8-(4-isopropyl-cyclohexyl)-1-phenyl-1,3,8-triaza-spiro[4.5]decan-4-one-3-yl)-nonane]
Male SD/TAC rats; po, read-out: PO max effect.
  response vs control in vivo at 3 µmol/kg: 250%
Male SD/TAC rats; sc
  minimal effective dose: 0.01 µmol/kg
  ED (max): 1000 nmol/kg
Male SD/TAC rats; sc, read-out: SC max effect.
  response vs control in vivo at 3 µmol/kg: 250%
Male SD/TAC rats; rat, in vivo
  Lovest Dose at which increased diuresis is achieved nMol/kg. I.e. >1.5 IV: 10^−5 nMol/kg
Male SD/TAC rats; rat, in vivo, po
  Lovest Dose at which increased diuresis is achieved nMol/kg. I.e. >1.5 PO: 10 nmol/kg
  PO Dose at which max diuresis is achieved: 1000 nmol/kg

## cis and trans-3-(Methoxycarbonylmethyl-)-8-(4-isopropyl-cyclohexyl)-1-phenyl-1,3,8-triaza-spiro[4.5]decan-4-one [Compound 10]
Male SD/TAC rats; rat, in vivo, sc
  Lovest Dose at which increased diuresis is achieved nMol/kg. I.e. >1.5 SC: 1000 nmol/kg
  SC Dose at which max diuresis is achieved: 1000 nmol/kg
  SC max effect.: 1.9

## cis-(8-(4-Isopropyl-cyclohexyl)-1-phenyl-1,3,8-triaza-spiro[4.5]decan-4-one)-acetic acid [Compound 11]
Male SD/TAC rats; rat, in vivo
  Lovest Dose at which increased diuresis is achieved nMol/kg. I.e. >1.5 IV: 10 nmol/kg
Male SD/TAC rats; rat, in vivo, sc
  Lovest Dose at which increased diuresis is achieved nMol/kg. I.e. >1.5 SC: 1000 nmol/kg
  SC Dose at which max diuresis is achieved: 1000 nmol/kg
  SC max effect.: 2.0
[1]
  oral availability (in words): orally available
Male NMRI mice
  gridshock response versus vehicle: No statistical significant difference
mice
  CNS motility* (Minimal effective dose nmol/kg): >10000 nmol/kg
  locomotor activity / activity count during the first 30 minutes versus vehicle: No statistical significant difference
